The source of these data is ChEMBL document CHEMBL1148021, “(Arylpiperazinyl)cyclohexylsufonamides: discovery of alpha(1a/1d)-selective adrenergic receptor antagonists for the treatment of Benign Prostatic Hyperplasia/Lower Urinary Tract Symptoms (BPH/LUTS)” (Bioorg Med Chem Lett, 2007).

One assay deals with D(2) dopamine receptor (Homo sapiens, UniProt P14416). The assay is described as follows: Binding affinity to human dopamine D2 receptor.
Assay [1] deals with T1, Alpha-1D adrenergic receptor (Homo sapiens, UniProt P25100).
T1 sequence (P25100 whole entry): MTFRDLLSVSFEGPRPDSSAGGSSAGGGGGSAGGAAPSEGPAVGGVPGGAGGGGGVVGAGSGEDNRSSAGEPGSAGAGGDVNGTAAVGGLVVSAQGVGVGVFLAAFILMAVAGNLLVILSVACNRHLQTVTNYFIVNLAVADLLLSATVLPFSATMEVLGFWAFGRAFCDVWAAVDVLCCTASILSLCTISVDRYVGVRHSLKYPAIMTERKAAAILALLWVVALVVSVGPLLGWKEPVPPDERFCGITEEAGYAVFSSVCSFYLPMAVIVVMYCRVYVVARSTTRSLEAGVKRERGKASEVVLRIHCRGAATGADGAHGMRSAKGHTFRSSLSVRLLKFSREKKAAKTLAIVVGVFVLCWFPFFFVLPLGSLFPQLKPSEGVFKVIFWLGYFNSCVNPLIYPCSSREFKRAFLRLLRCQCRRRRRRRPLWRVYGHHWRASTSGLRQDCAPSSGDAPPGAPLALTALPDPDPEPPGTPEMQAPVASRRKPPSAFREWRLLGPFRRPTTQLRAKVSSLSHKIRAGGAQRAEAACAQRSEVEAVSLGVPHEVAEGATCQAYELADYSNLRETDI
As to the kind of experiment: Binding affinity to human cloned adrenergic Alpha-1D receptor.

For assay [2], the target named is T2, Alpha-1B adrenergic receptor (Homo sapiens, UniProt P35368).
T2 sequence (P35368 whole entry): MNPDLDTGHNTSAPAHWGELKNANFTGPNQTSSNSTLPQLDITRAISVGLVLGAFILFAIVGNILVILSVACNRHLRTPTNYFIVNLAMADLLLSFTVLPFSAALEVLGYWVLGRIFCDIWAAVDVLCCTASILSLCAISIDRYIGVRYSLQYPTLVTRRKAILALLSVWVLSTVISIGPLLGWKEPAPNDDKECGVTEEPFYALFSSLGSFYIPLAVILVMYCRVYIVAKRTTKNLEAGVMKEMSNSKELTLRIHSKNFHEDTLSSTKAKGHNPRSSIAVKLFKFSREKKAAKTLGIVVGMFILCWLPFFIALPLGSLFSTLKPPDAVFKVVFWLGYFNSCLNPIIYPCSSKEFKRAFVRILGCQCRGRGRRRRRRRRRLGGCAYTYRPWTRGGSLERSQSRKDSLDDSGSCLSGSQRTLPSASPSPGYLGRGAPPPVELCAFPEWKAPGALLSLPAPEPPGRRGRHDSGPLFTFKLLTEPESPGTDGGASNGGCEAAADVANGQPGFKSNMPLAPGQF
As to the kind of experiment: Binding affinity to human cloned adrenergic alpha-1B receptor.

The target in assay [3] is T3, Alpha-1A adrenergic receptor (Homo sapiens, UniProt P35348).
T3 sequence (P35348 whole entry): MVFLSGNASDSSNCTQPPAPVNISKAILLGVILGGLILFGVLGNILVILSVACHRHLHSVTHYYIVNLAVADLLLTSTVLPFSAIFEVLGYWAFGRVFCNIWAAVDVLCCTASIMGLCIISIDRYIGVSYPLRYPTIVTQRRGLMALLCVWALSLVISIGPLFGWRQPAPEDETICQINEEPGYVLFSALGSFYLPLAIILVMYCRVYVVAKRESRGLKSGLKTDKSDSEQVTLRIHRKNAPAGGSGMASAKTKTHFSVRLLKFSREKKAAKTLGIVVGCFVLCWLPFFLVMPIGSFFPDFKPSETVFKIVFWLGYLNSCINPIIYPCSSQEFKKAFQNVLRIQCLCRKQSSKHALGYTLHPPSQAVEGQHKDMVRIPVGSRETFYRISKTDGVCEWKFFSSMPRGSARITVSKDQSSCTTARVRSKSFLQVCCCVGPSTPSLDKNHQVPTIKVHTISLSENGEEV
As to the kind of experiment: Binding affinity to human cloned adrenergic alpha-1A receptor.

SMILES strings stand for the structures.

Chain of D(2) dopamine receptor (P14416 whole entry): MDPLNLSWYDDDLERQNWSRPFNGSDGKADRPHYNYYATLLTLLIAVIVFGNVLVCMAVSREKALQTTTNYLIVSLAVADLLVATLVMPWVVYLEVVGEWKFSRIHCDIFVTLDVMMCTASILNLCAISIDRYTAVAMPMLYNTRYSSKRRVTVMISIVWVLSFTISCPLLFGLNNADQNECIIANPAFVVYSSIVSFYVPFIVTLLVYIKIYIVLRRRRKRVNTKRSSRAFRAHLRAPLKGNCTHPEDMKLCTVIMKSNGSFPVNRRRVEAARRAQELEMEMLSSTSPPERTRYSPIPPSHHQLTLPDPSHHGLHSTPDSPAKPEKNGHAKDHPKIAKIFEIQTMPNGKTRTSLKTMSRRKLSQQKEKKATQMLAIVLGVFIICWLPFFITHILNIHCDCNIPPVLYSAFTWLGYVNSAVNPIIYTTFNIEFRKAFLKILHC

Broadly, the Ki is a dissociation constant, usually derived from enzyme kinetics or from competition with a known ligand. A lower Ki goes with tighter binding. Consider `CC(C)Oc1ccccc1N1CCN([C@H]2CC[C@@H](NS(=O)(=O)c3ccccc3[N+](=O)[O-])CC2)CC1`, for which the inhibition constant Ki at D(2) dopamine receptor was determined as 51 nM.
Still for that read-out and setting: the result for `CC(C)Oc1ccccc1N1CCN([C@H]2CC[C@H](NS(=O)(=O)c3ccccc3[N+](=O)[O-])CC2)CC1` reads 86 nM.
The same measure, in the same setting: the result for `COc1ccncc1S(=O)(=O)N[C@H]1CC[C@@H](N2CCN(c3ccccc3OC(C)C)CC2)CC1` reads 92 nM; that for `CC(C)Oc1ccccc1N1CCN([C@H]2CC[C@@H](NS(=O)(=O)c3cnc(Cl)c(Br)c3)CC2)CC1`, 61 nM.
On the same count and under the same terms, the same measure for `CC(C)Oc1ccccc1N1CCN([C@H]2CC[C@@H](NS(=O)(=O)c3cccc(F)c3)CC2)CC1`: 74 nM; for `CC(C)Oc1ccccc1N1CCN([C@H]2CC[C@H](NS(=O)(=O)c3cccc(F)c3)CC2)CC1`: 64 nM.
On to `CC(C)Oc1ccccc1N1CCN([C@H]2CC[C@@H](NS(=O)(=O)c3cccc(Cl)c3F)CC2)CC1`, for which the Ki at D(2) dopamine receptor is 198 nM; in assay [1], 6.2 nM; in assay [2] it was 120 nM.
As to `CC(C)Oc1ccccc1N1CCN([C@H]2CC[C@@H](NS(=O)(=O)c3ccc(Cl)cc3F)CC2)CC1`, the Ki at D(2) dopamine receptor was determined as 130 nM.
The same measure, in the same setting: the same measure for `CC(C)Oc1ccccc1N1CCN([C@H]2CC[C@H](NS(=O)(=O)c3cccc(C(F)(F)F)c3)CC2)CC1`: 39 nM; for `CC(C)Oc1ccccc1N1CCN([C@H]2CC[C@H](NS(=O)(=O)c3ccc(Cl)cc3F)CC2)CC1`: 42 nM.
Still for that read-out and setting: the result for `CC(C)Oc1ccccc1N1CCN([C@H]2CC[C@@H](NS(=O)(=O)c3cccc(C(F)(F)F)c3)CC2)CC1` reads 118 nM; that for `COc1ccc(C)cc1S(=O)(=O)N[C@H]1CC[C@H](N2CCN(c3ccccc3OC(C)C)CC2)CC1`, 50 nM; that for `CC(C)Oc1ccccc1N1CCN([C@H]2CC[C@H](NS(=O)(=O)c3cnc(Cl)c(Br)c3)CC2)CC1`, 80 nM.
Same read-out and setting: the same measure for `COc1ccc(F)cc1S(=O)(=O)N[C@H]1CC[C@@H](N2CCN(c3ccccc3OC(C)C)CC2)CC1`: 173 nM; for `COc1ccc(Br)cc1S(=O)(=O)N[C@H]1CC[C@@H](N2CCN(c3ccccc3OC(C)C)CC2)CC1`: 37 nM; for `COc1ccc(OC)c(S(=O)(=O)N[C@H]2CC[C@H](N3CCN(c4ccccc4OC(C)C)CC3)CC2)c1`: 62 nM.
Turning to `COc1ccc(C(F)(F)F)cc1S(=O)(=O)N[C@H]1CC[C@@H](N2CCN(c3ccccc3OC(C)C)CC2)CC1`, at D(2) dopamine receptor, the Ki amounted to 194 nM.
For the molecule `COc1ccc(C(F)(F)F)cc1S(=O)(=O)N[C@H]1CC[C@H](N2CCN(c3ccccc3OC(C)C)CC2)CC1`, the results for the Ki (at D(2) dopamine receptor; in assay [1]; in assay [3]) were 1.9 nM, 15 nM and 25 nM, respectively.
In turn, `COc1ccc([N+](=O)[O-])cc1S(=O)(=O)N[C@H]1CC[C@H](N2CCN(c3ccccc3OC(C)C)CC2)CC1` yielded a Ki at D(2) dopamine receptor of 18 nM.
On to `Cc1ccc(S(=O)(=O)N[C@H]2CC[C@@H](N3CCN(c4ccccc4OC(C)C)CC3)CC2)cc1Cl`, for which the Ki on D(2) dopamine receptor was found to be 60 nM; in assay [3], 11 nM.
Regarding `COc1ccc(Cl)cc1S(=O)(=O)N[C@H]1CC[C@H](N2CCN(c3ccccc3OC(C)C)CC2)CC1`, the Ki at D(2) dopamine receptor is 78 nM.
The same measure, in the same setting: the result for `Cc1ccc(S(=O)(=O)N[C@H]2CC[C@H](N3CCN(c4ccccc4OC(C)C)CC3)CC2)cc1Cl` reads 52 nM; that for `CC(C)Oc1ccccc1N1CCN([C@H]2CC[C@@H](NS(=O)(=O)Cc3ccccc3)CC2)CC1`, 24 nM; that for `CC(C)Oc1ccccc1N1CCN([C@H]2CC[C@H](NS(=O)(=O)Cc3ccccc3)CC2)CC1`, 71 nM.
On the same count and under the same terms, the result for `CC(C)Oc1ccccc1N1CCN([C@H]2CC[C@H](NS(=O)(=O)c3ccccc3)CC2)CC1` reads 34 nM.
Still for that read-out and setting: the result for `CC(C)Oc1ccccc1N1CCN([C@H]2CC[C@@H](NS(=O)(=O)c3ccccc3C#N)CC2)CC1` reads 55 nM; that for `CC(C)Oc1ccccc1N1CCN([C@H]2CC[C@H](NS(=O)(=O)c3ccccc3C#N)CC2)CC1`, 2.4 nM.
As to `CC(C)Oc1ccccc1N1CCN([C@H]2CC[C@H](NS(=O)(=O)c3ccccc3F)CC2)CC1`, the Ki on D(2) dopamine receptor stood at 31 nM.
As to `CC(C)Oc1ccccc1N1CCN([C@H]2CC[C@@H](NS(=O)(=O)c3cccnc3)CC2)CC1`, on D(2) dopamine receptor, the Ki is 15 nM.
Molecule `CC(C)Oc1ccccc1N1CCN([C@H]2CC[C@@H](NS(=O)(=O)c3ccc(F)cc3)CC2)CC1` displayed a Ki at D(2) dopamine receptor of 69 nM.
For the molecule `CC(C)Oc1ccccc1N1CCN([C@H]2CC[C@@H](NS(=O)(=O)c3ccc(S(C)(=O)=O)cc3)CC2)CC1`, the Ki on D(2) dopamine receptor is 122 nM.
Still for that read-out and setting: the same measure for `CC(C)Oc1ccccc1N1CCN([C@H]2CC[C@H](NS(=O)(=O)c3ccc(S(C)(=O)=O)cc3)CC2)CC1`: 14 nM; for `COc1ccc(S(=O)(=O)N[C@H]2CC[C@H](N3CCN(c4ccccc4OC(C)C)CC3)CC2)cc1OC`: 62 nM.
As to `CC(C)Oc1ccccc1N1CCN([C@H]2CC[C@@H](NS(=O)(=O)c3ccc(OC(F)(F)F)cc3)CC2)CC1`, the Ki on D(2) dopamine receptor was 430 nM; in assay [3] it was 17 nM.
Consider `COc1ccc(OC)c(S(=O)(=O)N[C@H]2CC[C@@H](N3CCN(c4ccccc4OC(C)C)CC3)CC2)c1`, for which the inhibitory constant (Ki) at D(2) dopamine receptor was found to be 81 nM; in assay [1], 5.1 nM; in assay [2] it was 153 nM.
On D(2) dopamine receptor, `CC(C)Oc1ccccc1N1CCN([C@H]2CC[C@H](NS(=O)(=O)c3cccnc3)CC2)CC1` yielded a Ki of 55 nM.
Same read-out and setting: the result for `COc1ccncc1S(=O)(=O)N[C@H]1CC[C@H](N2CCN(c3ccccc3OC(C)C)CC2)CC1` reads 43 nM; that for `CC(C)Oc1ccccc1N1CCN([C@H]2CC[C@@H](NS(=O)(=O)c3ccc(Cl)cc3Cl)CC2)CC1`, 42 nM; that for `CC(C)Oc1ccccc1N1CCN([C@H]2CC[C@@H](NS(=O)(=O)c3ccccc3)CC2)CC1`, 191 nM.
In turn, `COc1ccc(F)cc1S(=O)(=O)N[C@H]1CC[C@H](N2CCN(c3ccccc3OC(C)C)CC2)CC1` displayed a Ki at D(2) dopamine receptor of 139 nM.
With `CC(C)Oc1ccccc1N1CCN([C@H]2CC[C@H](NS(=O)(=O)c3ccc(OC(F)(F)F)cc3)CC2)CC1`, the Ki at D(2) dopamine receptor worked out at 58 nM.
With `CC(C)Oc1ccccc1N1CCN([C@H]2CC[C@H](NS(=O)(=O)c3ccc(Cl)cc3Cl)CC2)CC1`, on D(2) dopamine receptor, the Ki came to 76 nM.
Turning to `CC(C)Oc1ccccc1N1CCN([C@H]2CC[C@H](NS(=O)(=O)c3cccc(Cl)c3F)CC2)CC1`, the affinity on D(2) dopamine receptor, expressed as Ki, was 271 nM.
Regarding `CC(C)Oc1ccccc1N1CCN([C@H]2CC[C@@H](NS(=O)(=O)c3ccccc3F)CC2)CC1`, the results for the Ki (on D(2) dopamine receptor; in assay [1]) were 149 nM and 2.4 nM, respectively.
Molecule `CC(C)Oc1ccccc1N1CCN([C@H]2CC[C@H](NS(=O)(=O)c3ccc(F)cc3)CC2)CC1` displayed a Ki on D(2) dopamine receptor of 27 nM.
`COc1ccc(Br)cc1S(=O)(=O)N[C@H]1CC[C@H](N2CCN(c3ccccc3OC(C)C)CC2)CC1` returned a Ki at D(2) dopamine receptor of 36 nM.
Still for that read-out and setting: the same measure for `COc1ccc([N+](=O)[O-])cc1S(=O)(=O)N[C@H]1CC[C@@H](N2CCN(c3ccccc3OC(C)C)CC2)CC1`: 45 nM.
With `COc1ccc(Cl)cc1S(=O)(=O)N[C@H]1CC[C@@H](N2CCN(c3ccccc3OC(C)C)CC2)CC1` (stereo in doubt; form 1), the Ki on D(2) dopamine receptor worked out at 101 nM; in assay [3], 1 nM.
Regarding `COc1ccc(S(=O)(=O)N[C@H]2CC[C@@H](N3CCN(c4ccccc4OC(C)C)CC3)CC2)cc1OC` (stereo in doubt; form 1), the Ki at D(2) dopamine receptor is 94 nM.
Consider `COc1ccc(S(=O)(=O)N[C@H]2CC[C@@H](N3CCN(c4ccccc4OC(C)C)CC3)CC2)cc1OC` (stereo in doubt; form 2), for which the results for the Ki (at D(2) dopamine receptor; in assay [1]; in assay [2]) were 810 nM, 19 nM and 112 nM, respectively.
As for `CCOc1ccccc1OCCN[C@H](C)Cc1ccc(OC)c(S(N)(=O)=O)c1` [TAMSULOSIN], the Ki in assay [1] was determined as 0.2 nM; in assay [2], 2 nM.
